# According to patent US10738070B2, “Mannose-derived antagonists of FimH useful for treating disease” (Fimbrion Therapeutics, Inc., priority 2016, dated 2020):
# Target: T1, FimH (Escherichia coli, UniProt Q1R2J4)
# T1 construct: endogenous in cells; host or cells: E. coli UTI89 bacteria
# Assay: Hemagglutination inhibition (HAI) assay with UTI89 bacteria and guinea pig red blood cells
# Assay type: cell-based
# Conditions: concentration reducing bacterial agglutination of guinea pig red blood cells by greater than 90%; UTI89 bacteria
# Description: “HAI or EC>90” is that concentration of the FimH inhibitor/antagonist which reduces the bacterial agglutination of guinea pig red blood cells by greater than 90%.
# HAI Assay The hemagglutination inhibition (HAI) assay was performed with UTI89 bacteria and guinea pig red blood cells, as previously described (S. J. Hultgren, W. R. Schwan, A. J. Schaeffer, J. L. Duncan Infect. Immun. 1986, 54, 613-620). Compounds not listed were not tested.
row,Structure (SMILES),HAI titer EC>90 [µM]
1,"Cc1cc(Oc2cccc(C#N)c2)c([N+](=O)[O-])cc1O[C@H]1O[C@H](CO)[C@@H](O)[C@H](O)[C@@H]1O [Example 1, 3-[4-(α-D-mannopyranosyloxy)-5-methyl-2-nitrophenoxy]benzonitrile]",0.125
2,"Cc1cc(-n2cc(-c3ccccn3)nn2)ccc1O[C@H]1O[C@H](CO)[C@@H](O)[C@H](O)[C@@H]1O [Example 3, 2-methyl-4-[4-(pyridin-2-yl)-1H-1,2,3-triazol-1-yl]phenyl α-D-mannopyranoside]",0.062
3,"Cc1cc(-n2cc(-c3cccc(C(=O)O)c3)nn2)ccc1O[C@H]1O[C@H](CO)[C@@H](O)[C@H](O)[C@@H]1O [Example 5, 2-methyl-4-[4-(3-carboxyphenyl)-1H-1,2,3-triazol-1-yl]phenyl α-D-mannopyranoside]",0.062
4,"Cc1cc(-c2ccnc(Cl)c2)ccc1OC1OC(CO)C(O)C(O)C1O [Example 6a, 4-(2′-chloropyrid-4′-yl)-2-methylphenyl α-D-mannopyranoside]",0.062
5,"Cc1cc(-c2ccnc(-c3ccnc(Cl)c3)c2)ccc1OC1OC(CO)C(O)C(O)C1O [Example 6b, 4-[2′-(2″-chloropyrid-4″-yl)-pyrid-4′-yl]-2-methylphenyl α-D-mannopyranoside]",0.062
6,"Cc1cc(-c2cccc(C(=O)N3CCOCC3)c2)ccc1O[C@H]1O[C@H](CO)[C@@H](O)[C@H](O)[C@@H]1O [Example 7, 3-methyl-3′-(morpholin-4-ylcarbonyl)biphenyl-4-yl α-D-mannopyranoside]",0.25
7,"Cc1cc(-c2cccc(C(=O)N3CCNCC3)c2)ccc1O[C@H]1O[C@H](CO)[C@@H](O)[C@H](O)[C@@H]1O [Example 8, 3-methyl-3′-(piperazin-1-ylcarbonyl)biphenyl-4-yl α-D-mannopyranoside]",0.25
8,"Cc1cc(-c2cncc(C(=O)NC(C)C)c2)ccc1O[C@H]1O[C@H](CO)[C@@H](O)[C@H](O)[C@@H]1O [Example 9, 5-[4′-(α-D-mannopyranosyloxy)-3′-methylphenyl]-N-isopropyl-3-pyridinecarboxamide]",0.032
9,"Cc1cc(-c2cccc(C(=O)NCCCCCCNC(=O)CCCCC[N+]3=C(/C=C/C=C/C=C4/c5ccc6ccccc6c5C(C)(C)N4C)C(C)(C)c4ccc5ccccc5c43)c2)ccc1OC1OC(CO)C(O)C(O)C1O.[Cl-] [Example 10, N-(Cyanine5.5)-4′-(α-D-mannopyranosyl)-3′-methyl-[1,1′biphenyl]-3-carboxamide chloride]",16
10,"COC(=O)c1cncc(-c2ccc(O[C@H]3O[C@H](CO)[C@@H](O)[C@H](O)[C@@H]3O)c(C)c2)c1 [Example 11, 5-[4′-(α-D-mannopyranosyloxy)-3′-methylphenyl]-3-pyridinecarboxylic acid methyl ester]",0.032
11,"Cc1cc(-c2ccc3[nH]nc(C)c3c2)ccc1O[C@H]1O[C@H](CO)[C@@H](O)[C@H](O)[C@@H]1O [Example 12, 3-Methyl-5-[4′-(α-D-mannopyranosyloxy) 3′-methylphenyl]-1H-indazole]",0.062
12,"Cc1cc(-c2ccc3[nH]nc(N)c3c2)ccc1O[C@H]1O[C@H](CO)[C@@H](O)[C@H](O)[C@@H]1O [Example 13, 5-[4′-(α-D-mannopyranosyloxy)-3′-methylphenyl]-1H-indazol-3-amine]",0.125
13,"Cc1cc(-c2cccc3cnccc23)ccc1O[C@H]1O[C@H](CO)[C@@H](O)[C@H](O)[C@@H]1O [Example 15, 5-[4′-(α-D-mannopyranosyloxy)-3′-methylphenyl]-isoquinoline]",0.062
14,"Cc1cc(-c2cccc3c(=O)[nH]ccc23)ccc1O[C@H]1O[C@H](CO)[C@@H](O)[C@H](O)[C@@H]1O [Example 16, 5-[4′-(α-D-mannopyranosyloxy)-3′-methylphenyl]-1(2H)-isoquinolinone]",0.125
15,"Cc1cc(-c2cccc3c(N)nccc23)ccc1O[C@H]1O[C@H](CO)[C@@H](O)[C@H](O)[C@@H]1O [Example 17, 5-[4′-(α-D-mannopyranosyloxy)-3′-methylphenyl]-isoquinolin-1-amine]",0.062
16,"Cc1cc(-c2cccc(-c3nnn[nH]3)c2)ccc1O[C@H]1O[C@H](CO)[C@@H](O)[C@H](O)[C@@H]1O [Example 18, 3-Methyl-3′-(2H-tetrazol-5-yl)[1,1′-biphenyl]-4-yl α-D-mannopyranoside]",0.125
17,"CNC(=O)c1cc(C(=O)NCCCCCCNC(=O)CCCCC[N+]2=C(/C=C/C=C/C=C3/c4ccc5ccccc5c4C(C)(C)N3C)C(C)(C)c3ccc4ccccc4c32)cc(-c2ccc(OC3OC(CO)C(O)C(O)C3O)c(C)c2)c1 [Example 22, N^3-(Cyanine5.5)-4′-(α-D-mannopyranosyl)-N^5,3′-dimethyl-[1,1′biphenyl]-3,5-dicarboxamide chloride]",2

row,Structure (SMILES),HAI titer EC>90 [µM]
1,"CNC(=O)c1cc(C(=O)O)cc(-c2ccc(O[C@H]3O[C@H](CO)[C@@H](O)[C@H](O)[C@@H]3O)c(C)c2)c1 [Example 23, 4′-(α-D-mannopyranosyloxy)-3′-methyl-5-[(methylamino)carbonyl]-[1,1′biphenyl]-3-carboxylic acid]",0.032
2,"Cc1cc(-c2cncc(C(=O)O)c2)ccc1O[C@H]1O[C@H](CO)[C@@H](O)[C@H](O)[C@@H]1O [Example 24, 5-[4′-(α-D-mannopyranosyloxy)-3′-methylphenyl]-3-pyridinecarboxylic acid]",0.25
3,"Cc1cc(-c2cc3[nH]c(=O)[nH]c(=O)c3s2)ccc1O[C@H]1O[C@H](CO)[C@@H](O)[C@H](O)[C@@H]1O [Example 25, 6-[4′-(α-D-mannopyranosyloxy)-3′-methylphenyl]-thieno[3,2-d]pyrimidine-2,4(1H,3H)-dione]",0.024
4,"Cc1cc(-c2ccc3ccn(C(C)C)c(=O)c3c2)ccc1O[C@H]1O[C@H](CO)[C@@H](O)[C@H](O)[C@@H]1O [Example 26, 2-isopropyl-7-[4′-(α-D-mannopyranosyloxy)-3′-methylphenyl]-1(2H)-isoquinolinone]",0.043
5,"Cc1cc(-c2ccc3c(c2)C(=O)N(C(C)C)CC3)ccc1O[C@H]1O[C@H](CO)[C@@H](O)[C@H](O)[C@@H]1O [Example 27, 2-isopropyl-3,4-Dihydro-7-[4′-(α-D-mannopyranosyloxy)-3′-methylphenyl]-1(2H)-isoquinolinone]",0.032
6,"Cc1cc(-n2cc(-c3ccccc3N)nn2)ccc1O[C@H]1O[C@H](CO)[C@@H](O)[C@H](O)[C@@H]1O [Example 28, 2-methyl-4-[4-(2-aminophenyl)-1H-1,2,3-triazol-1-yl]phenyl α-D-mannopyranoside]",0.15
7,"Cc1cc(Oc2ccccc2[N+](=O)[O-])c([N+](=O)[O-])cc1O[C@H]1O[C@H](CO)[C@@H](O)[C@H](O)[C@@H]1O [Example 29, 2-[4-(α-D-mannopyranosyloxy)-5-methyl-2-nitrophenoxy]nitrobenzene]",1
8,"CC(=O)Nc1ccccc1Oc1cc(C)c(O[C@H]2O[C@H](CO)[C@@H](O)[C@H](O)[C@@H]2O)cc1[N+](=O)[O-] [Example 30, N-(2-[4-(α-D-mannopyranosyloxy)-5-methyl-2-nitrophenoxy]phenyl)acetamide]",1.5
9,"CC(=O)Nc1cccc(Oc2cc(C)c(O[C@H]3O[C@H](CO)[C@@H](O)[C@H](O)[C@@H]3O)cc2[N+](=O)[O-])c1 [Example 31, N-(3-[4-(α-D-mannopyranosyloxy)-5-methyl-2-nitrophenoxy]phenyl)acetamide]",0.5
10,"Cc1cc(Oc2ccc(C#N)cc2)c([N+](=O)[O-])cc1O[C@H]1O[C@H](CO)[C@@H](O)[C@H](O)[C@@H]1O [Example 32, 4-[4-(α-D-mannopyranosyloxy)-5-methyl-2-nitrophenoxy]benzonitrile]",0.5
11,"CC(=O)Nc1ccc(Oc2cc(C)c(O[C@H]3O[C@H](CO)[C@@H](O)[C@H](O)[C@@H]3O)cc2[N+](=O)[O-])cc1 [Example 33, N-(4-[4-(α-D-mannopyranosyloxy)-5-methyl-2-nitrophenoxy]phenyl)acetamide]",0.25
12,"Cc1cc(Oc2ccc3ccncc3c2)c([N+](=O)[O-])cc1O[C@H]1O[C@H](CO)[C@@H](O)[C@H](O)[C@@H]1O [Example 34, 7-[4-(α-D-mannopyranosyloxy)-5-methyl-2-nitrophenoxy]isoquinoline]",0.125
13,"Cc1cc(Oc2ccccc2C#N)c([N+](=O)[O-])cc1O[C@H]1O[C@H](CO)[C@@H](O)[C@H](O)[C@@H]1O [Example 35, 2-[4-(α-D-mannopyranosyloxy)-5-methyl-2-nitrophenoxy]benzonitrile]",1
14,"Cc1cc(Oc2ccc3cccnc3c2)c([N+](=O)[O-])cc1O[C@H]1O[C@H](CO)[C@@H](O)[C@H](O)[C@@H]1O [Example 36, 7-[4-(α-D-mannopyranosyloxy)-5-methyl-2-nitrophenoxy]quinoline]",0.5
15,"CS(=O)(=O)c1ccc(-c2ccc(O[C@H]3O[C@H](CO)[C@@H](O)[C@H](O)[C@@H]3O)c(Cl)c2)cc1 [Example 37, 3-chloro-4′-(methylsulfonyl)biphenyl-4-yl α-D-mannopyranoside]",0.15
16,"Cc1cc(-c2ccc3cc[nH]c(=O)c3c2)cc(C)c1OC1OC(CO)C(O)C(O)C1O [Example 38, 7-[4′-(α-D-mannopyranosyloxy)-3′,5′-dimethylphenyl]-1(2H)-iso-quinolinone]",0.266
